Experimental data published in ChEMBL document CHEMBL4507264, “Data for DCP probe BAY-7598” (2021).

How the values were obtained:
[1] = tested on: Phosphatidylinositol 4,5-bisphosphate 3-kinase catalytic subunit alpha isoform (Homo sapiens), P42336 [H1047Y]; details: Compound concentration 1000.0 nM
[2] = molecular target: Dual specificity protein kinase CLK1 (Homo sapiens) (UniProt P49759); details: Compound concentration 1000.0 nM
[3] = molecular target: Serine/threonine-protein kinase SIK2 (Homo sapiens) (UniProt Q9H0K1); details: Compound concentration 1000.0 nM
Chain of Serine/threonine-protein kinase SIK2 (Homo sapiens) (Q9H0K1 whole entry, looked up): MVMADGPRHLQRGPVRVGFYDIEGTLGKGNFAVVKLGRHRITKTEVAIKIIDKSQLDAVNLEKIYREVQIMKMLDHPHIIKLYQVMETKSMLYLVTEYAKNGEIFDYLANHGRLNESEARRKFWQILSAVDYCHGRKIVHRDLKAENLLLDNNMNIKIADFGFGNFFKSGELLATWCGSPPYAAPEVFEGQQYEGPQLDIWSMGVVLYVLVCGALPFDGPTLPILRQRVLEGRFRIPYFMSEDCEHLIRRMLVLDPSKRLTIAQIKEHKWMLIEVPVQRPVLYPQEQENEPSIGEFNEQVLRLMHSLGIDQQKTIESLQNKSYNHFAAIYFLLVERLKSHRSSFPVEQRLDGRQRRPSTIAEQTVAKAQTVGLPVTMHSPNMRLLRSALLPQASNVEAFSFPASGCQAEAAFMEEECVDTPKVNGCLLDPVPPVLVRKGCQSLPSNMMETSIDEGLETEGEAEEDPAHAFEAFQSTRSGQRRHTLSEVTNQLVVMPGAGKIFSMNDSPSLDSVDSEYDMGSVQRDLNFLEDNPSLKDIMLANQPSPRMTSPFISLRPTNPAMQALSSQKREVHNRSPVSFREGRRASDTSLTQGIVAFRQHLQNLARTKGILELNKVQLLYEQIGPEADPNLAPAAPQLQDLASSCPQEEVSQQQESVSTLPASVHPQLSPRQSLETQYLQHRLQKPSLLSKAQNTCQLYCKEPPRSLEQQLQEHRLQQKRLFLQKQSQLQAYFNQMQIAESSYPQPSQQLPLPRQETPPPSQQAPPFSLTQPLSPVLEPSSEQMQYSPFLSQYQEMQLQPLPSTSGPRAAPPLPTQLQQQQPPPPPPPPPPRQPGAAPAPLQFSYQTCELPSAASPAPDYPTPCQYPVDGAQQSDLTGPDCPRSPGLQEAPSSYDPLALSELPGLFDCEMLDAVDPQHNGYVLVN

[4] = molecular target: Dual specificity protein kinase TTK (Homo sapiens) (UniProt P33981); details: Compound concentration 1000.0 nM
[5] = molecular target: Calcium-dependent protein kinase 1 (Plasmodium falciparum) (UniProt P62344); details: Compound concentration 1000.0 nM
[6] = molecular target: Cyclin-dependent kinase 17 (Homo sapiens) (UniProt Q00537); details: Compound concentration 1000.0 nM
Chain of Cyclin-dependent kinase 17 (Homo sapiens) (Q00537 whole entry, looked up): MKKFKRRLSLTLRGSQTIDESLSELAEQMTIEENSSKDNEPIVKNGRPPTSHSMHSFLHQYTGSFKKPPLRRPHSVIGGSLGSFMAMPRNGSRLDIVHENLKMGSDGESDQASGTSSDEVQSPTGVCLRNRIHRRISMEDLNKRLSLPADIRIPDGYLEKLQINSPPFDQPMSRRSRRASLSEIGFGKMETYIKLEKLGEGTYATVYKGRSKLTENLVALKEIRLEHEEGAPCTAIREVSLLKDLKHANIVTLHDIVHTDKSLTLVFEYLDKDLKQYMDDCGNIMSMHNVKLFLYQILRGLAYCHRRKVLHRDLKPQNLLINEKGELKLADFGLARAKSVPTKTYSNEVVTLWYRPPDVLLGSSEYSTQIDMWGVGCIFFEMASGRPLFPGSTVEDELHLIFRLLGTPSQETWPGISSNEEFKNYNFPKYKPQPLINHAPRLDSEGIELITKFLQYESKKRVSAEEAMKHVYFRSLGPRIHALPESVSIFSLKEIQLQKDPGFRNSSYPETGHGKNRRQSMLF

[7] = molecular target: Cyclin-dependent kinase 2 homolog (Plasmodium falciparum (isolate 3D7)) (UniProt P61075); details: Compound concentration 1000.0 nM
[8] = molecular target: AP2-associated protein kinase 1 (Homo sapiens) (UniProt Q2M2I8); details: Compound concentration 1000.0 nM
[9] = molecular target: 3-phosphoinositide-dependent protein kinase 1 (Homo sapiens) (UniProt O15530); details: Compound concentration 1000.0 nM
[10] = molecular target: Cyclin-dependent kinase 5 (Homo sapiens) (UniProt Q00535); details: Compound concentration 1000.0 nM
[11] = molecular target: Ribosomal protein S6 kinase alpha-6 (Homo sapiens) (UniProt Q9UK32); details: Compound concentration 1000.0 nM
Chain of Ribosomal protein S6 kinase alpha-6 (Homo sapiens) (Q9UK32 whole entry): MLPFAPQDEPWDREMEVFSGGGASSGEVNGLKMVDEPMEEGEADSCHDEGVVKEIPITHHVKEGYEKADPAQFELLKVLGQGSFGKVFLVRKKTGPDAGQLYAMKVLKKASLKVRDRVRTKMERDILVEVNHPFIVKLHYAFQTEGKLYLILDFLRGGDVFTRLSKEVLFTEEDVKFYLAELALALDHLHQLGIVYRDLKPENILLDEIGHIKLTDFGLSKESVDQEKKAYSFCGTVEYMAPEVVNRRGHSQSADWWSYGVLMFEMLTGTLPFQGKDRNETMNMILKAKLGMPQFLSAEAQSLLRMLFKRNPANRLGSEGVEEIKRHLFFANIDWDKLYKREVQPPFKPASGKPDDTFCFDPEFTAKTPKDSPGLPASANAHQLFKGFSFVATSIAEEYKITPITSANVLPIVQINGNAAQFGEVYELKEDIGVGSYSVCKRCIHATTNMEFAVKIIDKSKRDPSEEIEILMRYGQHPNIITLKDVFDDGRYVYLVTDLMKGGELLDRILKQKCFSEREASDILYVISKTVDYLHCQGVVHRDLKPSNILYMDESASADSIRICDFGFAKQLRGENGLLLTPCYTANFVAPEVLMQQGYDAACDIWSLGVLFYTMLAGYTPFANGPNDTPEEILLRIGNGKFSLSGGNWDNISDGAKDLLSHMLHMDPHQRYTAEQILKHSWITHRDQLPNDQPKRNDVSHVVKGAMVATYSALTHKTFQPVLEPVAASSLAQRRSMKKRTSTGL

[12] = molecular target: Serine/threonine-protein kinase WNK3 (Homo sapiens) (UniProt Q9BYP7); details: Compound concentration 1000.0 nM
[13] = molecular target: Muscle, skeletal receptor tyrosine-protein kinase (Homo sapiens) (UniProt O15146); details: Compound concentration 1000.0 nM
Chain of Muscle, skeletal receptor tyrosine-protein kinase (Homo sapiens) (O15146 whole entry): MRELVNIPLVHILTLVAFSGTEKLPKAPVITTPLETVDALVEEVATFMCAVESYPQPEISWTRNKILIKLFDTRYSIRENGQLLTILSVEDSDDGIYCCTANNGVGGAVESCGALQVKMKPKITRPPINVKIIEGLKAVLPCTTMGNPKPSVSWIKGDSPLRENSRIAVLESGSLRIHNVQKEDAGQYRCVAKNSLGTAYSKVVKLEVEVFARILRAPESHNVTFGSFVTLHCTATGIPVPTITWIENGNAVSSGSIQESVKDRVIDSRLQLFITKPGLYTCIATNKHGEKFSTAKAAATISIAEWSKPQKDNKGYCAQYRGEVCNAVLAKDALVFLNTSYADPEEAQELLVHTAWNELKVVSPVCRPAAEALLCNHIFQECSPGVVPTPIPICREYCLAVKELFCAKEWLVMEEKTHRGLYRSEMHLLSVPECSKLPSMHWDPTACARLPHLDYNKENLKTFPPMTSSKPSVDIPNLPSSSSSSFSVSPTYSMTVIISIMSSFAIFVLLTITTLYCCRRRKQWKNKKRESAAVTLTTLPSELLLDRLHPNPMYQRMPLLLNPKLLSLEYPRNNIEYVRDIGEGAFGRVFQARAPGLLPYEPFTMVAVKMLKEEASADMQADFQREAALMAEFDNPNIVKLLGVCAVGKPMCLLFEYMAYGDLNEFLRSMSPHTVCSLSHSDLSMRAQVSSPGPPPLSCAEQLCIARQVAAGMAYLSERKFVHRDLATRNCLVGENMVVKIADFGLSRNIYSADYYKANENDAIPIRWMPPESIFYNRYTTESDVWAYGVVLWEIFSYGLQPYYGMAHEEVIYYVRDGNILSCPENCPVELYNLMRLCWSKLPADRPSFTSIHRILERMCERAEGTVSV

[14] = molecular target: Ephrin type-A receptor 1 (Homo sapiens) (UniProt P21709); details: Compound concentration 1000.0 nM
[15] = molecular target: Rho-associated protein kinase 2 (Homo sapiens) (UniProt O75116); details: Compound concentration 1000.0 nM
[16] = molecular target: Mitogen-activated protein kinase kinase kinase 13 (Homo sapiens) (UniProt O43283); details: Compound concentration 1000.0 nM
[17] = molecular target: Tyrosine-protein kinase HCK (Homo sapiens) (UniProt P08631); details: Compound concentration 1000.0 nM
[18] = molecular target: RAC-alpha serine/threonine-protein kinase (Homo sapiens) (UniProt P31749); details: Compound concentration 1000.0 nM
[19] = molecular target: Aurora kinase B (Homo sapiens) (UniProt Q96GD4); details: Compound concentration 1000.0 nM
[20] = molecular target: Alpha-2A adrenergic receptor (Homo sapiens) (UniProt P08913); details: Compound concentration 10.0 uM
[21] = molecular target: Serine/threonine-protein kinase 38-like (Homo sapiens) (UniProt Q9Y2H1); details: Compound concentration 1000.0 nM
[22] = molecular target: Atypical kinase COQ8A, mitochondrial (Homo sapiens) (UniProt Q8NI60); details: Compound concentration 1000.0 nM
[23] = molecular target: Cyclin-dependent kinase 16 (Homo sapiens) (UniProt Q00536); details: Compound concentration 1000.0 nM
[24] = molecular target: Alpha-2B adrenergic receptor (Homo sapiens) (UniProt P18089); details: Compound concentration 10.0 uM
[25] = molecular target: 1-phosphatidylinositol 3-phosphate 5-kinase (Homo sapiens) (UniProt Q9Y2I7); details: Compound concentration 1000.0 nM
[26] = molecular target: Uncharacterized serine/threonine-protein kinase SBK3 (Homo sapiens) (UniProt P0C264); details: Compound concentration 1000.0 nM
[27] = molecular target: Death-associated protein kinase 3 (Homo sapiens) (UniProt O43293); details: Compound concentration 1000.0 nM
[28] = molecular target: Serine/threonine-protein kinase Sgk1 (Homo sapiens) (UniProt O00141); details: Compound concentration 1000.0 nM
[29] = molecular target: Histamine H1 receptor (Homo sapiens) (UniProt P35367); details: Compound concentration 10.0 uM
[30] = molecular target: STE20/SPS1-related proline-alanine-rich protein kinase (Homo sapiens) (UniProt Q9UEW8); details: Compound concentration 1000.0 nM
[31] = molecular target: Ephrin type-A receptor 2 (Homo sapiens) (UniProt P29317); details: Compound concentration 1000.0 nM
[32] = molecular target: Glycogen synthase kinase-3 beta (Homo sapiens) (UniProt P49841); details: Compound concentration 1000.0 nM
Chain of Glycogen synthase kinase-3 beta (Homo sapiens) (P49841 whole entry, looked up): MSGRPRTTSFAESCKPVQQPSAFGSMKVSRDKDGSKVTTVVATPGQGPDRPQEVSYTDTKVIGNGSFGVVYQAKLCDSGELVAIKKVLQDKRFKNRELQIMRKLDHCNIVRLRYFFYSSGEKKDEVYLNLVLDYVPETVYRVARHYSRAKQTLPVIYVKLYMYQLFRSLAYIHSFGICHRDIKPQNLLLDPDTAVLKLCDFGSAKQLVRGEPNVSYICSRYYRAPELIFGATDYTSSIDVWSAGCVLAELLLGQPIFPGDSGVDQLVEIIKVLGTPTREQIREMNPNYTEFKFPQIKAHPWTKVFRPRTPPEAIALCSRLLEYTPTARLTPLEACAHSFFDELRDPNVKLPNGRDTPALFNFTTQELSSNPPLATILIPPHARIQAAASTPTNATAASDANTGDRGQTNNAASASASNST

[33] = tested on: Epidermal growth factor receptor (Homo sapiens), P00533 [UNDEFINED MUTATION]; details: Compound concentration 1000.0 nM
[34] = molecular target: Serine/threonine-protein kinase TAO3 (Homo sapiens) (UniProt Q9H2K8); details: Compound concentration 1000.0 nM
[35] = molecular target: Serine/threonine-protein kinase PAK 6 (Homo sapiens) (UniProt Q9NQU5); details: Compound concentration 1000.0 nM
[36] = molecular target: D(1B) dopamine receptor (Homo sapiens) (UniProt P21918); details: Compound concentration 10.0 uM
[37] = molecular target: Activin receptor type-2B (Homo sapiens) (UniProt Q13705); details: Compound concentration 1000.0 nM
Chain of Activin receptor type-2B (Homo sapiens) (Q13705 whole entry): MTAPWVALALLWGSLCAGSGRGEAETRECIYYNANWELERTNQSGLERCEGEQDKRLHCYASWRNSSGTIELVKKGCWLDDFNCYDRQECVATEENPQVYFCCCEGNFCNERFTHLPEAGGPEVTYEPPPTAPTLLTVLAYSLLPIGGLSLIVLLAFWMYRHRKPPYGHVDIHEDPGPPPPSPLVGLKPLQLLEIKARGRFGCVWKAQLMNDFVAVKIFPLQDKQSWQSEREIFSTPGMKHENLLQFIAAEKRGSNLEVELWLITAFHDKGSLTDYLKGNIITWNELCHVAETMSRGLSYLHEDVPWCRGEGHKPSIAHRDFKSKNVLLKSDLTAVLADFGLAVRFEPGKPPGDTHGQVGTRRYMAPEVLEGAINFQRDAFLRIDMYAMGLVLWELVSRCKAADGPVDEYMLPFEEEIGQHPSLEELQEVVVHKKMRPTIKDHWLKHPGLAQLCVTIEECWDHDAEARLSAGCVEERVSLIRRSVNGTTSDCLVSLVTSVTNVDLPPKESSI

[38] = molecular target: Serine/threonine-protein kinase PAK 2 (Homo sapiens) (UniProt Q13177); details: Compound concentration 1000.0 nM
[39] = molecular target: Phosphatidylinositol 4,5-bisphosphate 3-kinase catalytic subunit beta isoform (Homo sapiens) (UniProt P42338); details: Compound concentration 1000.0 nM
[40] = molecular target: Delta-type opioid receptor (Homo sapiens) (UniProt P41143); details: Compound concentration 10.0 uM
[41] = molecular target: Serine/threonine-protein kinase ULK3 (Homo sapiens) (UniProt Q6PHR2); details: Compound concentration 1000.0 nM
[42] = molecular target: Ephrin type-A receptor 4 (Homo sapiens) (UniProt P54764); details: Compound concentration 1000.0 nM
[43] = molecular target: RAF proto-oncogene serine/threonine-protein kinase (Homo sapiens) (UniProt P04049); details: Compound concentration 1000.0 nM
[44] = tested on: Receptor-type tyrosine-protein kinase FLT3 (Homo sapiens), P36888 [UNDEFINED MUTATION]; details: Compound concentration 1000.0 nM
[45] = molecular target: Calcium/calmodulin-dependent protein kinase kinase 2 (Homo sapiens) (UniProt Q96RR4); details: Compound concentration 1000.0 nM

Chain of Phosphatidylinositol 4,5-bisphosphate 3-kinase catalytic subunit alpha isoform (Homo sapiens), P42336 [H1047Y] (P42336 whole entry H1047Y, canonical isoform): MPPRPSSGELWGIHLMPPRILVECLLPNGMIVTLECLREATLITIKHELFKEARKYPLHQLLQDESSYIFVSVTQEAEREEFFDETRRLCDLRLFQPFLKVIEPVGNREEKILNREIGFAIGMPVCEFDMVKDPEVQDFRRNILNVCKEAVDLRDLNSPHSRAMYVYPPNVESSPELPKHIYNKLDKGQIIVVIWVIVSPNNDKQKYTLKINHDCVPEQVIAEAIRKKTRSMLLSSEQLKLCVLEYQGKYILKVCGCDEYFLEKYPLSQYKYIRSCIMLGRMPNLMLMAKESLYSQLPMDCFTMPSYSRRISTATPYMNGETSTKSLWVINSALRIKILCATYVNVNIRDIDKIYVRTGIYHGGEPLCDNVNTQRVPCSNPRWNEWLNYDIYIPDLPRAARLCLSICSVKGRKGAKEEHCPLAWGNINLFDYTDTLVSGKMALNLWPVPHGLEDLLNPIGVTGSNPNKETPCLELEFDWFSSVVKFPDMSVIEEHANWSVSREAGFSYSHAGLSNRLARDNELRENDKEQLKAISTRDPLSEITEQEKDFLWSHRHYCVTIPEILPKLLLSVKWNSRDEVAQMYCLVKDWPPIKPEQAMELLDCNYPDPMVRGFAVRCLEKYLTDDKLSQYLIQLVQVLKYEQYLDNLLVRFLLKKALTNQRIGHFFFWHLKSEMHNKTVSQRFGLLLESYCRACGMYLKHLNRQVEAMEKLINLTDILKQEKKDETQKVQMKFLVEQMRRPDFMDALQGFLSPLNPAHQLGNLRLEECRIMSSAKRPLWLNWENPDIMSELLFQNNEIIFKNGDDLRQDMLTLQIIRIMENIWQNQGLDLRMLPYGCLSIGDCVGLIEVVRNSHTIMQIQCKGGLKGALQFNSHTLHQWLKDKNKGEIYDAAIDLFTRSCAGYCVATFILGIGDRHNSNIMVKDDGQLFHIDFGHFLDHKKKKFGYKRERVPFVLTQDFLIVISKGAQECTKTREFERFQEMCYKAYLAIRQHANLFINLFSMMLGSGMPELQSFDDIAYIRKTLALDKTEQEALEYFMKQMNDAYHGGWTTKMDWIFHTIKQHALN

SMILES: O=C(O)[C@@H]1[C@@H](Cn2nnc3ccccc3c2=O)CC[C@H]1C(=O)c1ccc(OCCC2CCOCC2)cc1 [BAY-694]
- residual activity [1]: 94%
- residual activity [2]: 98%
- residual activity [3]: 91%
- residual activity [4]: 89%
- residual activity [5]: 100%
- residual activity [6]: 88%
- residual activity [7]: 100%
- residual activity [8]: 100%
- residual activity [9]: 80%
- residual activity [10]: 81%
- residual activity [11]: 100%
- residual activity [12]: 100%
- residual activity [13]: 100%
- residual activity [14]: 100%
- residual activity [15]: 100%
- residual activity [16]: 70%
- residual activity [17]: 100%
- residual activity [18]: 75%
- residual activity [19]: 100%
- inhibition [20]: 5.09%
- residual activity [21]: 100%
- residual activity [22]: 88%
- residual activity [23]: 100%
- inhibition [24]: 8.62%
- residual activity [25]: 87%
- residual activity [26]: 43%
- residual activity [27]: 100%
- residual activity [28]: 74%
- inhibition [29]: 1.6%
- residual activity [30]: 96%
- residual activity [31]: 100%
- residual activity [32]: 100%
- residual activity [33]: 95%
- residual activity [34]: 100%
- residual activity [35]: 99%
- inhibition [36]: 19.6%
- residual activity [37]: 100%
- residual activity [38]: 82%
- residual activity [39]: 66%
- inhibition [40]: 15.9%
- residual activity [41]: 100%
- residual activity [42]: 92%
- residual activity [43]: 100%
- residual activity [44]: 100%
- residual activity [45]: 100%

SMILES: O=C(O)[C@H]1[C@H](Cn2nnc3ccccc3c2=O)CC[C@@H]1C(=O)c1ccc(OCCC2CCOCC2)cc1 [BAY-7598]
- residual activity [1]: 88%
- residual activity [2]: 98%
- residual activity [3]: 100%
- residual activity [4]: 83%
- residual activity [5]: 100%
- residual activity [6]: 74%
- residual activity [7]: 91%
- residual activity [8]: 78%
- residual activity [9]: 74%
- residual activity [10]: 100%
- residual activity [11]: 97%
- residual activity [12]: 100%
- residual activity [13]: 95%
- residual activity [14]: 100%
- residual activity [15]: 80%
- residual activity [16]: 96%
- residual activity [17]: 70%
- residual activity [18]: 83%
- residual activity [19]: 100%
- inhibition [20]: -5.14%
- residual activity [21]: 96%
- residual activity [22]: 100%
- residual activity [23]: 98%
- inhibition [24]: 3.34%
- residual activity [25]: 72%
- residual activity [26]: 100%
- residual activity [27]: 99%
- residual activity [28]: 100%
- inhibition [29]: -8.85%
- residual activity [30]: 95%
- residual activity [31]: 93%
- residual activity [32]: 100%
- residual activity [33]: 80%
- residual activity [34]: 100%
- residual activity [35]: 100%
- inhibition [36]: 7.53%
- residual activity [37]: 79%
- residual activity [38]: 69%
- residual activity [39]: 80%
- inhibition [40]: 1.43%
- residual activity [41]: 85%
- residual activity [42]: 90%
- residual activity [43]: 91%
- residual activity [44]: 83%
- residual activity [45]: 90%
